What all share (experiment): DTP human tumour cell line panel, 48 h
For assay [1], the system named is MDA-N.
The test system of assay [2] is XF 498 CNS.
Assay [3] relates to KM20L2 colon.
The test system of assay [4] is SNB-78 CNS.
Assay [5] concerns LXFL 529 NSCLC.
For assay [6], the system named is DMS 114 small cell lung.
The test system of assay [7] is DLD-1 colon.
The subject of assay [8] is RXF-631 renal.
Assay [9] relates to M19-MEL melanoma.

Each structure is given as a SMILES string.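 48-hour exposure; five concentrations; linearly interpolated endpoints. At the GI50, growth is halved. TGI denotes the concentration required for complete inhibition of growth.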

For orientation: TGI means the concentration giving total growth inhibition. Lower therefore signals more potent growth arrest. In assay [1], `Cc1cc(N=Nc2ccccc2C)ccc1N` showed a concentration for total growth inhibition (TGI) of 39.6 µM.
As to `Cc1ccccc1NC(=O)C(=O)C(C#N)c1ccccc1C` (stereo not given), the TGI in assay [2], in assay [3], in assay [4], in assay [5], in [6] and in assay [7] was greater than 100 µM each time.
The GI50 is the concentration that inhibits growth by half. Turning to `C=C1CCC2[C@@H](CCC3[C@]2(C)CCC[C@]3(C)C(=O)OC)C1CC=O` (stereo not given in full), in [8], the GI50 was 20.9 µM. Also, the TGI in [8] was determined as 37.2 µM; in [9], 33.8 µM; in assay [2], 28.6 µM; in assay [3] it was 35.7 µM; in [4], 34.1 µM; in [5] it was 30.1 µM. Also, the TGI is 34.7 µM in assay [6] and 42.9 µM in assay [7].
In turn, `OC(C#Cc1ccccc1)(c1ccccc1)c1ccccc1` registered a concentration for total growth inhibition (TGI) in assay [1] of 61.7 µM.
`N#CC(C#N)c1ccc(C(=O)N2CCC[C@H]2CO)cc1`: the concentration for total growth inhibition (TGI) in assay [8], in [9], in [3], in assay [5], in [6] and in assay [7] was greater than 100 µM each time.
For `O=S(=O)(c1cccc(N=C=S)c1)c1cccc(N=C=S)c1`, the TGI in [3] is greater than 100 µM; in assay [4], 63.5 µM; in [5], 28.5 µM; in assay [6], 29.6 µM; in assay [7], 40.7 µM.
Take `Cc1cc(C)nc(NS(=O)(=O)c2ccc(Nc3c4ccccc4nc4c(C(=O)Nc5ccc(S(=O)(=O)N=C(N)N)cc5)cccc34)cc2)n1`: the concentration for total growth inhibition (TGI) in assay [8], in assay [9], in assay [3], in assay [4], in [6] and in assay [7] was greater than 100 µM throughout.
For the molecule `O=C(O)/C=C/c1nc2ccccc2c(=O)o1`, the TGI in [9], in assay [3], in assay [4], in [5], in [6] and in [7] was greater than 100 µM in each case.
Turning to `CCOC(=O)/C(C#N)=C(O)/C(=C\c1ccc(Br)cc1)NC(=O)c1ccccc1`, the TGI in [8], in assay [9], in [3], in [4], in [5] and in assay [6] was greater than 100 µM each time. Moreover, the TGI in assay [7] was greater than 100 µM.
Regarding `COCCNC(=O)C1C(=O)C(=O)N(CCOC)C1=O` (stereo not given), the concentration for total growth inhibition (TGI) in [8], in assay [9], in [3], in assay [4], in assay [5] and in assay [6] was greater than 100 µM throughout. In addition, the TGI in assay [7] is greater than 100 µM.
As for `CC(C)=CC(=O)N(C)C1C2CN3CCC(O2)C13` (stereo not given), the concentration for total growth inhibition (TGI) in assay [9], in [2], in assay [3], in [4], in [5] and in [6] was greater than 100 µM throughout. In [7], the TGI was greater than 100 µM.
With `COC1C(N)C(OC2C(Oc3cccc4c(O)c5c(=O)oc6ccc(C)c7c(=O)oc(c34)c5c67)OC(C)C(O)C2(C)O)OC(C)C1O` (stereo not given), the concentration for total growth inhibition (TGI) was 1.45 µM in [8]; 0.458 µM in assay [9]; 0.208 µM in [2]; 1.21 µM in assay [3]; 0.302 µM in assay [4]; 0.148 µM in assay [5]. The values for the TGI in assay [1], in [6] and in assay [7] were 0.541 µM, 0.229 µM and 0.726 µM, respectively.
`O=S(=O)(/C=C/C(=C/c1ccccc1)S(=O)(=O)c1ccccc1)c1ccccc1`: the total growth inhibition concentration (TGI) in assay [8] amounted to 2.31 µM; in [2] it was 3.09 µM; in [5], 3.19 µM; in assay [6], 3.32 µM.
As for `CCCCCCCCCCCCC(Br)C(=O)NCC(N)=O` (stereo not given), the total growth inhibition concentration (TGI) in [8] came to 18.4 µM; in assay [9], 32.5 µM; in assay [2] it was 3.83 µM; in assay [3], 42.5 µM; in assay [4], 32.2 µM; in assay [5] it was 21.5 µM. Besides, the concentration for total growth inhibition (TGI) turned out to be 15.2 µM in assay [6] and 29.8 µM in [7].
Take `N#Cc1ccc(C=NC23CC4CC(CC(C4)C2)C3)cc1`: the total growth inhibition concentration (TGI) in assay [8], in assay [9], in assay [3], in assay [4] and in [6] was greater than 100 µM each time.
`Cc1ccc(/C(C#N)=C/c2cccc([N+](=O)[O-])c2)cc1` returned a TGI in [1] greater than 100 µM.
For `CCC1(O)C(=O)OCc2c1cc1n(c2=O)Cc2cc3c(NC(=O)CN)cccc3nc2-1` (stereo not given), the GI50 in assay [9] is 1.38 µM; in assay [2], 2.24 µM; in assay [3], 1.77 µM; in assay [4] it was 8.13 µM; in [5] it was 5.3 µM; in assay [1], 4.94 µM. Also, the GI50 in assay [7] is 11.2 µM. The TGI in assay [9] is 14.1 µM; in assay [2], 25.4 µM; in assay [4] it was greater than 100 µM; in assay [5] it was greater than 75 µM; in [1], greater than 55.8 µM; in assay [7] it was greater than 100 µM.
With `Cc1ccc(NC(=O)CC2C(=O)Nc3ccccc3S2(=O)=O)c(C)c1` (stereo not given), the TGI in assay [2] turned out to be 34.8 µM; in assay [3], 26.9 µM; in [4], 56 µM; in [5] it was 41 µM; in [6], 39.2 µM; in assay [7], 43.1 µM.
Take `C=CNC(=O)NC(=O)CSc1nnc(-c2ccccc2NC(=O)C(F)(F)F)c(=O)[nH]1`: the concentration for total growth inhibition (TGI) in assay [9] was greater than 100 µM; in assay [2], greater than 100 µM; in assay [4], greater than 100 µM; in assay [5] it was greater than 100 µM; in assay [6] it was 43.1 µM; in [7], 22.7 µM.
For the molecule `NC(=O)NNC(=O)NC12CC3CC(CC(C3)C1)C2`, the total growth inhibition concentration (TGI) in assay [9], in assay [2], in assay [3], in assay [4], in assay [5] and in [6] was greater than 100 µM in each case. The same molecule returned a TGI in assay [7] greater than 100 µM.
